In test [1] the test system is CD4+CD25+Foxp3+ T cells. Description: Regulatory T cell proportion in PBMC of RA patients, FACS. It counts as cell-based, human. The note with it: 1.25 μg/ml peptide, 48 hours, compared with non-citrullinated matched peptide. Here is the method:
Given the observed immunomodulation of cytokines following incubation of peripheral blood mononuclear cells obtained from rheumatoid arthritis patients with citrullinated peptides, the citrullinated peptides were tested for their ability to exert an effect on the T regulatory population proportion. Peripheral blood mononuclear cells of rheumatoid arthritis patients were cultured in the presence of 1.25 μg/ml of the peptides (Fil-Cit, β-Fib-Cit, and Cit-ME; FIGS. 6A, 6B and 6E, respectively, and Fil-NC, β-Fib-NC and Non-Cit-ME; FIGS. 6C, 6D and 6G, respectively), and Infliximab (FIG. 6F) for 48 hours. Cells cultured with medium devoid of the peptides and Infliximab served as control (FIG. 6H). Thereafter, cells were stained for the expression of CD4, CD25, and FoxP3 and analyzed by FACS. […] Mean percentage of CD4^+CD25^+Foxp3^+ T cells in the presence of Infliximab was increased by 14% as compared to medium (FIG. 6F and FIG. 6H, respectively). Thus, citrullinated peptides are able to induce the expansion of the T regulatory cell population.

For test [2], the system named is T cells. The test is described as follows: T cells apoptosis in PBMC of RA patients, annexin V/PI FACS. The test is classed as cell-based, human. The note with it: 24 hours, gated on PI negative cells, compared with matched non-citrullinated peptide. As to the method:
To assess the ability of the citrullinated peptides to affect T cells apoptosis, peripheral blood mononuclear cells of rheumatoid arthritis patients were cultured in the presence of citrullinated, non-citrullinated peptides and Infliximab for 24 hours. Cells were double-stained for annexin V-fluorescein isothiocyanate (FITC) and PI-PE (apoptosis/necrosis markers) and analyzed by FACS. The results in FIG. 8 are presented after gating for PI negative cells (live cells). The β-Fib-Cit and Cit-ME (FIGS. 8A and 8B, respectively) induced T cells apoptosis (by 20% and 18%, respectively) as compared with the non-citrullinated peptides Non-Cit-β-Fib (FIG. 8D) and Non-Cit-ME (FIG. 8E). Infliximab induced apoptosis by 28% (FIG. 8C) as compared with the medium control (FIG. 8F).

Test [3] relates to TGF-β. The test is described as follows: TGF-β gene expression in mononuclear cells derived from synovial fluid of RA patients, real-time PCR. The test is classed as cell-based, human. The note with it: 24 h, compared to the non-citrullinated peptides. As to the method:
To assess the effect of the Cit-ME peptide (SEQ ID NO: 1) on inflammatory related genes expression, peripheral blood mononuclear cells derived from synovial fluid rheumatoid arthritis patients were incubated with the Cit-ME multi-epitope citrullinated peptide for 24 h. The effect of the peptide on gene expression was compared also to the effect of infliximab, a TNF-α blocker, which is an antirheumatic drug that acts as an anti-inflammatory compound. […] Results were determined by real-time PCR.
In general terms: Real-time PCR tracks product formation cycle by cycle.

The subject of test [4] is CD4+CD25+FoxP3+ regulatory T cells. Description: Regulatory T cells in splenocytes of AIA rats, FACS. It counts as in vivo, rat. The text has this: Splenocytes from rats at day 28 post disease induction were stained with anti-CD4-FITC, anti-CD25-APC, and anti-Foxp3-PE (eBioscience) mAbs and analyzed by FACS. In representative outputs as shown in FIG. 12A-C, Regulatory T cells subpopulation was higher in Cit-ME treated rats (9%), compared to 7% and 6.2% in Non-Cit-ME peptide and untreated rats, respectively. Statistical analysis of the results is shown in FIG. 12D (Cit-ME n=9, Non-Cit-ME n=11, untreated rats n=7).

Turning to “VCitLCitSSVESTCitGRSCitPAPPPACitGLT [Cit-ME]”, the “increase in mean percentage of CD4+CD25+Foxp3+ T cells” value in test [1] is given as 12%. Further, the “induction of T cells apoptosis” value in test [2] turned out to be 18%. For the same substance, the “expression of TGF-β” value in test [3] is recorded as “up-regulated”. In addition, the “percentage of CD4+CD25+FoxP3+ regulatory T cells subset, statistical analysis” value in test [4] (spleens of AIA rats, day 28, untreated 7.17±0.31) turned out to be 8.13±0.17%. Also, the “Regulatory T cells subpopulation, representative outputs” value in test [4] (splenocytes of AIA rats, day 28 post disease induction, untreated 6.2%) is given as 9%.
